Measured values: US12728132B2, “Inhibitors of the peptidyl-prolyl cis/trans isomerase (PIN1), combinations and uses thereof” (DANA-FARBER CANCER INSTITUTE, INC., priority 2021, dated 2026)
*1 amine or outer side, *2 acyl side, *3 side chain or, on linkers, in order; H or OH if unused. Where a SMILES comes first, the peptide text is derived from it. Where no end group is shown, it is not given here. [ ]: non-standard residue; d: D form. The star is where a group is joined. Pro(13C,15N) = carbon and nitrogen isotope labeled proline, O=[13C]([13C@@H]1[13CH2][13CH2][13CH2][15N]1[*:1])[*:2]; pS = N[C@@H](COP(=O)(O)O)C(=O)O; Cbz = O=C(OCc1ccccc1)*

What was measured:
[1] = system: K14cre; p53^wt/f; Brca1^wt/f tumors; test: Survival and tumor growth, Brca1-proficient immunocompetent TNBC mouse model; format: in vivo; conditions: mice bearing K14cre, n=10 per group
Source text: (§1) All animal experiments were approved by the IACUC of the Beth Israel Deaconess Medical Center. Maximum permitted the longest dimension of tumors was 20 mm. Pieces from breast tumors generated in K14cre; p53^f/f; Brca1^f/f or K14cre; p53^wt/f; Brca1^wt/f female mice were transplanted into the mammary pad of 6-week-old FVB female mice. For survival studies, treatments were started once the tumors reached 3-5 mm in diameter and continued until mice were symptomatic or tumors reached 20 mm in any direction, at which point mice were euthanized. For time point analysis, mice were sacrificed two weeks post-treatment initiation. Control and anti-PD-L1 antibody (clone 29E.2A3) treatments were conducted by intraperitoneal injection with a dosage of 200 μg per mouse every three days. sulfopin treatment was given by intraperitoneal injection with a dosage of 60 mg/kg (7 days/week), abemaciclib treatment was given by oral gavage with a dosage of 100 mg/kg (7 days/week), or drug combinations in which each compound was administered at the same dose and scheduled as a single agent. Tumor sizes were measured every three days by caliper after implantation and tumor volume was calculated by the modified ellipsoidal formula: tumor volume=½length×width^2. The investigators were not blinded to allocation during experiments and outcome assessment.

[2] = system: K14cre; p53^wt/f, Brca1^wt/f BT3 tumors; test: Survival and tumor growth, FVB mice bearing BT3 tumors; format: in vivo; conditions: n=10 mice per group
Source text: as §1

[3] = system: K14cre; p53^f/f; Brca1^f/f tumors; test: Survival and tumor growth, Brca1-deficient immunocompetent TNBC mouse model; format: in vivo; conditions: mice bearing K14cre, n=6 per group
Source text: as §1

[4] = system: Cdh1 binding to Pin1 WW and PPIase domains; test: GST-Pin1 pull-down of HA-Cdh1 after sulfopin treatment; format: cell-based, human; conditions: MCF-7 cells expressing HA-Cdh1, sulfopin 3 days, 10 μM MG132 last 12 hrs
Protocol: GST pull-down was performed as described previously (Lee et al., Mol Cell 2011; 42:147-59). Briefly, cells were stably expressing indicated proteins and lysed in pull-down buffer (20 mM Tris pH 8.0, 150 mM NaCl, 1 mM EDTA pH 8.0, 0.5% Nonidet-P40). The cell extracts were pre-cleared by glutathione agarose beads and incubated with 1 μM GST or GST fusion proteins overnight at 4° C. Protein complexes were recovered on glutathione agarose beads for 2 hours at 4° C., washed four to six times with pull-down buffer and eluted by boiling in SDS-containing sample buffer. Bound proteins were resolved by SDS-PAGE.
To further define the molecular mechanism of Cdh1-mediated Pin1 degradation, the interaction of Pin1 and Cdh1 was examined using GST pull-down assays using GST-Pin1 point mutations. IB analysis of GST pull-down precipitates derived from 293T cells transfected with HA-Cdh1 and GST-Pin1 mutants as indicated for 36 hrs. The graphs were one representative experiment out of three independent experiments. […] FIG. 1K and FIG. 1L show the shift of Cdh1 binding from the WW− to the PPIase domain of Pin1 upon inhibition of PPIase activity. […] Bottom graphs quantification of IB analysis for bound HA-Cdh1. […]

[5] = system: TNBC patient-derived xenograft (TM00096); test: In vivo therapy for TNBC patient-derived xenografts (PDOX); parameters: species or system human tumor in BALB/c nude mice; conditions: Rb-proficient TNBC PDOX, nude mice
Protocol: All animal experiments were approved by the IACUC of the Beth Israel Deaconess Medical Center. Triple-negative BC patient-derived xenograft (TM00096) was purchased from Jackson Laboratories. Pieces from PDOX tumors were subcutaneously implanted into flank of 6-week-old BALB/c female nude mice. Tumor sizes were measured every three days by caliper after implantation and tumor volume was calculated by the modified ellipsoidal formula: tumor volume=½length×width^2. Treatments were started once the tumors reached 5 mm in diameter and continued until tumors reached 15 mm in any direction. […] Sulfopin treatment was given by intraperitoneal injection with a dosage of 40 mg/kg (dissolved solution: 5% DMSO in D5W, 7 days/week), palbociclib treatment was given by oral gavage with a dosage of 100 mg/kg (dissolved solution: saline, 5 days/week), abemaciclib treatment was given by oral gavage with a dosage of 100 mg/kg (dissolved solution: 0.5% CMC-Na, 5 days/week), or drug combinations in which each compound was administered at the same dose and scheduled as a single agent. […]
PDOX tumor tissue sections were boiled in 10 mM sodium citrate (pH 6.0), for antigen retrieval after deparaffinization. […] Slides were scanned at least three different representative areas at 20× magnification using BZ-X800 fluorescence microscope (KEYENCE).

[6] = system: K14cre; Brca1^+/−; p53^−/−-TNBC; test: Survival until mandatory euthanasia, syngeneic FVB/N TNBC model with or without anti-PD-L1; format: in vivo; conditions: syngeneic FVB/N mice, time to mandatory euthanasia (tumor size 2 cm)
Source text: All animal experiments were approved by the IACUC of the Beth Israel Deaconess Medical Center. Maximum permitted the longest dimension of tumors was 20 mm. Pieces from breast tumors generated in K14cre; p53^f/f; Brca1^f/f or K14cre; p53^wt/f; Brca1^wt/f female mice were transplanted into the mammary pad of 6-week-old FVB female mice. For survival studies, treatments were started once the tumors reached 3-5 mm in diameter and continued until mice were symptomatic or tumors reached 20 mm in any direction, at which point mice were euthanized. For time point analysis, mice were sacrificed two weeks post-treatment initiation. […] Tumor sizes were measured every three days by caliper after implantation and tumor volume was calculated by the modified ellipsoidal formula: tumor volume=½length×width^2. […]
A total of 86 FVB/N mice were grafted syngeneically with the K14cre; Brca1^+/−; p53″/tumors. […] Time to mandatory euthanasia (tumor size 2 cm) was recorded. […] Statistical significance was calculated using a two-sided log-rank test.

[7] = system: MCF-7 cells; test: Time-lapse single-cell tracking with APC-degron reporter; format: cell-based, human; conditions: single living cells tracked, asynchronous MCF-7
Protocol: MCF-7 cells were stably expressed with mCherry-Geminin (1-110) and a histone H2B-Turquoise. Cells were then plated 24 hours before starting the microscope acquisition. Pin1 inhibitors or CDK4/6 inhibitors were added in the medium and imaged using a Nikon Eclipse TE-2000 inverted microscope with a 10× Plan Apo objective and a Hammamatsu Orca ER camera, equipped with environmental chamber controlling temperature, atmosphere (5% CO2) and humidity. Images were acquired every 30 min using the MetaMorph Software. For each condition filmed, 4 different fields were selected.
p53Cinema single cell analysis package was used for semiautomatic tracking of individual cells in live cell imaging datasets as described previously (Reyes et al., Mol Cell 2018; 71:581-91 e5). Tracking data were then used to quantify intensity of fluorescent reporters from background subtracted images by averaging 10 pixels within the cell nucleus. Cells were tracked using only information about a constitutively expressed nuclear marker, such as H2B-Turquoise, and were thus blind to the dynamics of molecular players of interest, such as mCherry-Geminin. Only cells that remained within the field of view throughout the entire duration of the experiment were considered for downstream analyses. […] S/G2 durations were calculated by the time that cells spent in S/G2 phase after drugs were added.

[8] = system: Pin1 in MDA-MB-231 cells; test: Immunoblot of Pin1 inhibitor-induced Pin1 degradation with proteasome inhibitors; format: cell-based, human; conditions: MDA-MB-231, AApin 3 days; 10 μM MG132 or 1 μM bortezomib last 12 hrs
Protocol: For IB analysis, cells were lysed in RIPA buffer (Thermo) supplemented with protease inhibitors (Sigma) and phosphatase inhibitors (Sigma). Protein concentrations were measured using Protein Assay Dye Reagent (Bio-Rad) and a Beckman Coulter. Equal amounts of protein were resolved by SDS-PAGE and probed with indicated antibodies. For immunoprecipitation analysis, cells were lysed in IP lysis buffer (Thermo) and pre-cleared by Mouse IgG-Agarose (Sigma) for 1 hour at 4° C. and then incubated with anti-Flag M2-Agarose (Sigma) for 2 hours at 4° C. The agaroses were washed four times with IP lysis buffer and boiled in standard Laemmli-Buffer with 5% final concentration of β-mercaptoethanol before being resolved by SDS-PAGE and immunoblotted with indicated antibodies.
Exploration of the intrinsic upstream regulators that could affect Pin1 protein stability was then sought.

[9] = target: T1, Pin1 (Homo sapiens, UniProt Q13526); test: NMR titration of Cdh1 phosphopeptide with Pin1; format: binding; conditions: NMR chemical shift perturbation, pH 6.6, 25° C.
T1 sequence (Q13526 whole entry, the tested form may be a part): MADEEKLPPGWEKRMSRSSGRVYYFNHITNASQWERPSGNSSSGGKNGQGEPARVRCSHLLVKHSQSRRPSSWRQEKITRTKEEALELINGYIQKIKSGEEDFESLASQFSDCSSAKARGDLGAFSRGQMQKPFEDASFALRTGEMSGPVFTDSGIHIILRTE
Protocol: All NMR experiments were acquired on Bruker NEO 600 MHz spectrometer equipped with a TCI cryoprobe at 25° C. 0.1 mM ^13C, ^15N-enriched Pin1 sample dissolved in pH 6.6 buffer made-up of 20 mM Potassium Phosphate, 100 mM NaSO4 and 10% D2O was used to study peptide interaction. NMR assignments of Pin1 were taken from the BMRB database (accession number 27579) and confirmed using 3D-HNCA experiment. Synthetic peptides Cdh1-pS163 (comprised of Cdh1 residues 161-183 with phosphorylated Ser163 and isotope labeled Pro164, LR (pS)P(^13C, ^15N) […]) (SEQ ID NO: 27). were purchased from Pepmic. A systematic titration between Pin1 and phosphopeptide was performed by acquiring 2D-HSQC spectra. The absolute average chemical shift perturbation was calculated by using an equation, [(A8H2+ (A8N/5) 2)/2]½, available in software NMRFAM Sparky version 1.414.

[10] = target: T1, Pin1; test: Proline isomerization study by 13C-HSQC NMR; format: biochemical
Source text: Commercially synthesized specific ^13C, ^15N-P164 labeled Cdh1 phosphopeptide was used to facilitate direct quantitative determination of the cis and trans proline populations. The strong ^13C-HSQC peaks originating from Pro164 can be easily distinguished from the weak peaks due to ~1% natural abundance ^13C present in the rest of the peptide. […] Based on the interpretation of the chemical shifts, the major peaks were assigned as trans isomer and the minor peaks were assigned as cis isomer (Schubert et al. J Biomol NMR 24, 149-154 (2002)). The proline resonance assignments were further confirmed using a 2D-^13C-HSQCTOCSY experiment while no attempts were made to stereospecifically assign proton resonances, thus the assignment of HB2 and HB3, HG2 and HG3, and HD2 and HD3 are interchangeable. 58 μM free peptide and its complex with a 4-fold molar excess of Pin1, dissolved in the above-mentioned NMR buffer were used to estimate the cis and trans isomer populations at 25° C.

[11] = system: TNBC; conditions: single agents; cited from earlier work

CC(C)(C)CN(C(=O)CCl)C1CCS(=O)(=O)C1 (centres unmarked) [sulfopin]
median survival [1]: 25 days | median survival [2]: 21 days | median survival [3]: 27 days | binding mode of Cdh1 to Pin1 [4]: shift from binding to the WW domain to the PPIase domain | tumor growth [5]: limited single agent activity | median survival [6]: 22.5 days | S/G2 duration [7]: strikingly prolonged S/G2 phases

CC(=O)c1c(C)c2cnc(Nc3ccc(N4CCNCC4)cn3)nc2n(C2CCCC2)c1=O [palbociclib]
median survival [2]: 21 days

CC(C)C[C@H](NC(=O)[C@H](Cc1ccccc1)NC(=O)c1cnccn1)B(O)O [bortezomib]
Pin1 inhibitor-induced Pin1 degradation [8]: rescued

CCN1CCN(Cc2ccc(Nc3ncc(F)c(-c4cc(F)c5nc(C)n(C(C)C)c5c4)n3)nc2)CC1 [abemaciclib]
median survival [1]: 25 days | median survival [3]: 31.5 days | median survival [6]: 31 days

Cdh1-pS163: Cdh1 residues 161-183 with phosphorylated Ser163 and isotope labeled Pro164 (SEQ ID NO: 27) (LR[pS][Pro(13C,15N)]RKPTRKISKIPFKVLDAPE)
binding to the Pin1 WW domain [9]: moderately strong affinity | cis-P164 isomer population ([10]; 1:4 complex with Pin1, 25° C.): 14.2% | cis-P164 isomer population ([10]; free peptide, 58 μM, 25° C.): 7%

CN(C)C(=O)c1cc2cnc(Nc3ccc(N4CCNCC4)cn3)nc2n1C1CCCC1 [ribociclib]
single agent activity in TNBC [11]: neither palbociclib nor ribociclib has activity in TNBC

CC(C)C[C@@H](C=O)NC(=O)[C@H](CC(C)C)NC(=O)[C@H](CC(C)C)NC(=O)OCc1ccccc1 [MG132] (Cbz-Leu-Leu-Leu-aldehyde)
Pin1 inhibitor-induced Pin1 degradation [8]: rescued
